Earlier results, collected in patent publication US20260337593A1, “METHOD AND MEANS FOR ENGINEERING NON-RIBOSOMAL PEPTIDES” (JOHANN WOLFGANG GOETHE-UNIVERSITÄT FRANKFURT AM MAIN, priority 2022, published 2026).

Molecular target: Mycobacterium tuberculosis proteasome (Mycobacterium tuberculosis, UniProt P9WHT9)
Conditions: role: inhibitor; literature reference 60

Mycobacterium tuberculosis proteasome, sequence (P9WHT9 whole entry, looked up): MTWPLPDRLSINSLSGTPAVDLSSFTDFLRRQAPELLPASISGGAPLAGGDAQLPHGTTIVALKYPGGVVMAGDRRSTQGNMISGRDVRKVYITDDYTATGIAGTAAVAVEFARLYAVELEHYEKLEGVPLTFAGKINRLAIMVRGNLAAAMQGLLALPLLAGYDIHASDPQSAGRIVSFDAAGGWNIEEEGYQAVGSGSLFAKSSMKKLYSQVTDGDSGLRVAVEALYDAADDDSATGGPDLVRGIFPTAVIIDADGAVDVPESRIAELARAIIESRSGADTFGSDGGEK

For `CCCCCCCCC[C@@H](O)CC(=O)N[C@@H](CC(N)=O)C(=O)N[C@@H](CCC(N)=O)C(=O)N[C@H](C=O)CC(C)C` [fellutamide B], the “binding of the active site's threonine” value is listed as “reversible binding”.
